Compound in one assay: NC(=O)CCCCC1CCSS1 [lipoamide]
Description: thermal stability z-score vs DMSO; higher = more thermally stabilized by treatment. The settings on record: HeLa, lipoamide concentration 100 µM. The method, then: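 Cellular thermal proteome profiling in HeLa cells. Cells were treated with 100 µM lipoamide for 1 h, with or without 1 mM arsenate for a further 1 h, then heated to ten temperatures (37-66.3 °C), and soluble protein was quantified by TMT mass spectrometry relative to 0.1% DMSO controls. The thermal stability score (sum of log2 fold changes minus the abundance score) was transformed to a z-score; mean of n = 3 experiments.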

Compound in the next assay: O=[As]([O-])(O)O.[K+] [potassium arsenate]
The assay is described as above. As to conditions: HeLa; arsenate concentration 1 mM. The method, then: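 Cellular thermal proteome profiling in HeLa cells treated with 1 mM arsenate for 1 h (DMSO pretreatment), heated to ten temperatures (37-66.3 °C). Soluble protein was quantified by TMT mass spectrometry relative to DMSO controls; the thermal stability score was transformed to a z-score; mean of n = 3 experiments.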

[1] abbreviates: arsenate co-treatment: 1 mM arsenate 1 h.
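Also: each temperature applied for 3 min, abundance score taken as mean log2 fold change at the two lowest temperatures, z-score obtained by mean subtraction and division by SD.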

Chain of UniProt Q16822 (Q16822 whole entry): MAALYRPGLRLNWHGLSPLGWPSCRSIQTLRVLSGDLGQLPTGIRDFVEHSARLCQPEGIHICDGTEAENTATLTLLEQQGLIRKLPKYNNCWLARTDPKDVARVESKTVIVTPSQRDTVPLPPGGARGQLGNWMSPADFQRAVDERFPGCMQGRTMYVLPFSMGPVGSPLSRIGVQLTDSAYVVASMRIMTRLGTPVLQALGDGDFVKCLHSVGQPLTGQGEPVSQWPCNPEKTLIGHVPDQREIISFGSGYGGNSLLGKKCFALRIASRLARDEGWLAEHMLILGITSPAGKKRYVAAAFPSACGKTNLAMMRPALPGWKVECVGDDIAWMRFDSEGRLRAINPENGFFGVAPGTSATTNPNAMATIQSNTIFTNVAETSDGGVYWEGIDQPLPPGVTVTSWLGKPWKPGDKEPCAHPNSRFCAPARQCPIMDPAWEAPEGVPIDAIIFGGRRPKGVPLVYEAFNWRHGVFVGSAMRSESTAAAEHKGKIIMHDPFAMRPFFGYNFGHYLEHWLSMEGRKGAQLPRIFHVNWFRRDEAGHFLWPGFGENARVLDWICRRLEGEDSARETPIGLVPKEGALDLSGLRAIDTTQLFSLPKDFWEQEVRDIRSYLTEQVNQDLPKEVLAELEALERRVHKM
Chain of UniProt Q9BRP1 (Q9BRP1 whole entry): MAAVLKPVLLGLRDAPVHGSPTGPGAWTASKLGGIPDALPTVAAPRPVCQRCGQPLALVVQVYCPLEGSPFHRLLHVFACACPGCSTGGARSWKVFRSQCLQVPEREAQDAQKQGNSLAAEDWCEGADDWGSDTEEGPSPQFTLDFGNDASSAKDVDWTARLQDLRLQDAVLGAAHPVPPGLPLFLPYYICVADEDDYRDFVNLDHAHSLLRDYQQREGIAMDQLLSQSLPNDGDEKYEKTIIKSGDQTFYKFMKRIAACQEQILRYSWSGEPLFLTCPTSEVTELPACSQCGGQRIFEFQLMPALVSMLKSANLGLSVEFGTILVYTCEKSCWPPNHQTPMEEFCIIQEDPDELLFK
Chain of UniProt O60658 (O60658 whole entry): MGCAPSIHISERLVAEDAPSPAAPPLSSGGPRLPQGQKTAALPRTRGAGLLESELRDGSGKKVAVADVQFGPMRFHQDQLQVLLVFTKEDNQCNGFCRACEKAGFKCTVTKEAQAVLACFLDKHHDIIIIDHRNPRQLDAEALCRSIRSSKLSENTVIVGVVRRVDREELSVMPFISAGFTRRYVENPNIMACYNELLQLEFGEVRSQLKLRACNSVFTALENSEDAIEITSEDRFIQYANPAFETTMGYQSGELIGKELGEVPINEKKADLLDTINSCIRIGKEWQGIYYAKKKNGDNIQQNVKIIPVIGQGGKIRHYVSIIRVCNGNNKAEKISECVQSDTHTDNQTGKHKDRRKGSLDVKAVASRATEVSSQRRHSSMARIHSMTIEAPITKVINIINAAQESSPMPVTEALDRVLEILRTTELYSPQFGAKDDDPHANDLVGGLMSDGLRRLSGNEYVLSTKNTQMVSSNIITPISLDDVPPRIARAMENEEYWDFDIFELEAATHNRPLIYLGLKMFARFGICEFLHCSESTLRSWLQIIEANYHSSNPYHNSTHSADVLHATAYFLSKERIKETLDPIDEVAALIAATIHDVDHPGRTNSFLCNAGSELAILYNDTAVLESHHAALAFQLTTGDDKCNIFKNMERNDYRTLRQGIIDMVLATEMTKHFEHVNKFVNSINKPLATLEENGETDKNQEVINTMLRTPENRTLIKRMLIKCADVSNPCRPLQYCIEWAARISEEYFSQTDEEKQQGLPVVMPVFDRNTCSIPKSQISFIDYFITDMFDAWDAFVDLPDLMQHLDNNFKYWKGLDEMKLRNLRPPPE
Chain of UniProt Q08499 (Q08499 whole entry): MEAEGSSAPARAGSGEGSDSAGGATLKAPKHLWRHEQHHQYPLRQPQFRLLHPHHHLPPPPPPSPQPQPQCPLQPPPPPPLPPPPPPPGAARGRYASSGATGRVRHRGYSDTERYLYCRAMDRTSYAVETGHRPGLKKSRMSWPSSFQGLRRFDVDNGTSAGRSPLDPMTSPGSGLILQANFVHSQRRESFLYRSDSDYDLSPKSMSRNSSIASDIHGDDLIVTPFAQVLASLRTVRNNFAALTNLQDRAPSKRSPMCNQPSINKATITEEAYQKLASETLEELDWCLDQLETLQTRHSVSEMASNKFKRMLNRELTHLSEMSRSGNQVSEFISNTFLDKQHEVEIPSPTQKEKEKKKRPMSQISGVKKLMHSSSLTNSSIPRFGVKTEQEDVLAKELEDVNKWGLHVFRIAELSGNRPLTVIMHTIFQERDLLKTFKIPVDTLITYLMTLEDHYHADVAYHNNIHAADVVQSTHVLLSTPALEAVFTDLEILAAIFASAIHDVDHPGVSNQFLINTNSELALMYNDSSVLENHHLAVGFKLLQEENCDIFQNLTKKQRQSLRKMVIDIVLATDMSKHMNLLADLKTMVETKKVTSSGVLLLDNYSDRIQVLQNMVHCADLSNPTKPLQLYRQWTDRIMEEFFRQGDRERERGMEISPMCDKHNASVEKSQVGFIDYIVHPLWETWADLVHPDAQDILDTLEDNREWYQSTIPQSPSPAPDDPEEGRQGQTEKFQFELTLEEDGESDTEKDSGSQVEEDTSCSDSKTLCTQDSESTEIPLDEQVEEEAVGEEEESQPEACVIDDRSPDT
Chain of UniProt Q15154 (Q15154 whole entry): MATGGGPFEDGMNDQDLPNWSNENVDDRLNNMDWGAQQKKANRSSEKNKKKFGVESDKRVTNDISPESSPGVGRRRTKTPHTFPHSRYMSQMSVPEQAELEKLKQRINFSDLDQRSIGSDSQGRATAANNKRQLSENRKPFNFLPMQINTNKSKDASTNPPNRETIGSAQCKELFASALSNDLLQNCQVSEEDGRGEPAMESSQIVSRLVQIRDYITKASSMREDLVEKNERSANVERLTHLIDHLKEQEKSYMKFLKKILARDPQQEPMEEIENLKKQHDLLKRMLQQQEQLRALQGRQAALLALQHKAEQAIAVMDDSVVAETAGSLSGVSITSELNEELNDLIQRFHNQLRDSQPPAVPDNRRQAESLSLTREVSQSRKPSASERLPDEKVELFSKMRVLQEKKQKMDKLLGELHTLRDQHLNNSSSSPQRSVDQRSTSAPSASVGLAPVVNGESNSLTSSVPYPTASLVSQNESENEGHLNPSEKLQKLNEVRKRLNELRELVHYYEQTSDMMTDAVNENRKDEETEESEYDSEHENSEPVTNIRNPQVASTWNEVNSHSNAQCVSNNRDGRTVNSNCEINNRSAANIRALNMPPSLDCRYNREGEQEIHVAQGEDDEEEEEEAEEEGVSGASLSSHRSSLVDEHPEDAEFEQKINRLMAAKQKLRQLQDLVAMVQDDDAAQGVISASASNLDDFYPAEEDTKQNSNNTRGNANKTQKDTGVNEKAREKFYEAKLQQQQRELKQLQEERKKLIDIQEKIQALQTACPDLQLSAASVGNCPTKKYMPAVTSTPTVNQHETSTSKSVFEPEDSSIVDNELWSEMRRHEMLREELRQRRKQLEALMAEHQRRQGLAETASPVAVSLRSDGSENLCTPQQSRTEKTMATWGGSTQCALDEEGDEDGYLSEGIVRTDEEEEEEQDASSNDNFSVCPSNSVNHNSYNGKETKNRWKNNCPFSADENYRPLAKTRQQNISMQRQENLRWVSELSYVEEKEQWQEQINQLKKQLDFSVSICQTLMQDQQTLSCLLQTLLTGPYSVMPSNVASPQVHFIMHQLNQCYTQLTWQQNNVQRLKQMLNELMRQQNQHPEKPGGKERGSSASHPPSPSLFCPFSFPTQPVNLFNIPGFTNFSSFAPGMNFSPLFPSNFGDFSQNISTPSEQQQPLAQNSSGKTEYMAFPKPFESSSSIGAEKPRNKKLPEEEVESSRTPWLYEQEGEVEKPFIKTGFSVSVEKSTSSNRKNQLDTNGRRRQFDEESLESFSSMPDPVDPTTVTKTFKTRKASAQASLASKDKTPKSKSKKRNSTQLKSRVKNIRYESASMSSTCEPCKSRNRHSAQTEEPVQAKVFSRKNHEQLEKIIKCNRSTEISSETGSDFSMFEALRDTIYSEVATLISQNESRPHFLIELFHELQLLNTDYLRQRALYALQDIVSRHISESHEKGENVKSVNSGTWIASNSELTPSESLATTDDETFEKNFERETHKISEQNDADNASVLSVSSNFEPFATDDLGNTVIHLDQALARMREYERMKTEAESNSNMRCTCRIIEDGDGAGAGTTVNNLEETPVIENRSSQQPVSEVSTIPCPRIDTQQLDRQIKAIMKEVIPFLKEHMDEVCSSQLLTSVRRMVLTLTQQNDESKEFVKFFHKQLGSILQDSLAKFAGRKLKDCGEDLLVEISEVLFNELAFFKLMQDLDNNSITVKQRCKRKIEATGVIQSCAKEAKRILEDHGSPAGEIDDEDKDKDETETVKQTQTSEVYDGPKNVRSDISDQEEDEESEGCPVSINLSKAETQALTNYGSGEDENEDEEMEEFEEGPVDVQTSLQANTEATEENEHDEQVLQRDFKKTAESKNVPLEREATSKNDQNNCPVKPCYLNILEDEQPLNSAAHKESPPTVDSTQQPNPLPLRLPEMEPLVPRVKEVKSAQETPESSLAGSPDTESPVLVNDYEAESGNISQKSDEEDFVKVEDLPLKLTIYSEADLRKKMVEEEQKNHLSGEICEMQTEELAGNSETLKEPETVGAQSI
Chain of UniProt Q9HBH1 (Q9HBH1 whole entry): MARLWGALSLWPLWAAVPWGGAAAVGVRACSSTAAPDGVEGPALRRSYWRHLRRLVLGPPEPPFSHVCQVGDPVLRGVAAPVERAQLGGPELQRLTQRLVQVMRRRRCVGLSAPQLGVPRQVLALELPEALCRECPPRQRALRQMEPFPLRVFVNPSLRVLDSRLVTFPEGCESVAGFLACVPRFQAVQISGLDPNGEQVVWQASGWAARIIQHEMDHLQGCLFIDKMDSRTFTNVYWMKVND
Chain of UniProt O14737 (O14737 whole entry): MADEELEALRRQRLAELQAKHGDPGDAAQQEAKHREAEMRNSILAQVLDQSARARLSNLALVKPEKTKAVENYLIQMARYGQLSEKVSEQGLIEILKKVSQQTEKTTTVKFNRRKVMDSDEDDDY

Regarding PCCB (UniProt P05166), the thermal stability z-score was 0.673 in the assay with lipoamide (setting [1]), -0.198 in the assay with lipoamide (arsenate co-treatment: none) and -0.873 with potassium arsenate.

PCF11 (UniProt O94913): the thermal stability z-score in the assay with lipoamide (setting [1]) was -0.0765; with lipoamide (arsenate co-treatment: none) it was -0.00889; in the assay with potassium arsenate, -0.0822.

Take PCGF5 (UniProt Q86SE9): the thermal stability z-score with lipoamide (setting [1]) was 0.0387; in the assay with lipoamide (arsenate co-treatment: none), 0.0817; with potassium arsenate, -0.181.

For the target PCID2 (UniProt Q5JVF3), the figures for the thermal stability z-score in the assay with lipoamide (setting [1]), with lipoamide (arsenate co-treatment: none) and in the assay with potassium arsenate were -0.297, 0.217 and 0.809, respectively.

On to PCIF1 (UniProt Q9H4Z3), for which the thermal stability z-score with lipoamide (setting [1]) is 0.0909; with lipoamide (arsenate co-treatment: none), 0.207; with potassium arsenate it was -0.0419.

Take PCK2 (UniProt Q16822): the thermal stability z-score with lipoamide (setting [1]) was -0.107; in the assay with lipoamide (arsenate co-treatment: none) it was -0.0889; in the assay with potassium arsenate, 0.352.

In the case of PCLO (UniProt Q9Y6V0), the thermal stability z-score with lipoamide (setting [1]) is 0.448; in the assay with lipoamide (arsenate co-treatment: none), 0.235; in the assay with potassium arsenate, -0.0814.

Regarding PCM1 (UniProt Q15154), the thermal stability z-score is -0.0188 in the assay with lipoamide (setting [1]), -0.104 in the assay with lipoamide (arsenate co-treatment: none) and 0.131 in the assay with potassium arsenate.

Turning to PCMT1 (UniProt P22061), the thermal stability z-score with lipoamide (setting [1]) was determined as 0.993; with lipoamide (arsenate co-treatment: none), 0.908; with potassium arsenate it was 0.245.

With PCNA (UniProt P12004), the thermal stability z-score was 0.353 with lipoamide (setting [1]), -0.0687 with lipoamide (arsenate co-treatment: none) and 1.56 with potassium arsenate.

With PCNP (UniProt Q8WW12), the thermal stability z-score in the assay with lipoamide (setting [1]) came out at 0.549; with lipoamide (arsenate co-treatment: none) it was 0.442; with potassium arsenate it was 0.289.

As to PCNT (UniProt O95613), the values for the thermal stability z-score in the assay with lipoamide (setting [1]), in the assay with lipoamide (arsenate co-treatment: none) and with potassium arsenate were -0.505, 0.496 and 0.281, respectively.

With PCSK9 (UniProt Q8NBP7), the results for the thermal stability z-score in the assay with lipoamide (setting [1]), in the assay with lipoamide (arsenate co-treatment: none) and in the assay with potassium arsenate were -0.578, -0.462 and 0.0738, respectively.

Take PCYOX1 (UniProt Q9UHG3): the values for the thermal stability z-score with lipoamide (setting [1]), with lipoamide (arsenate co-treatment: none) and with potassium arsenate were 0.606, -0.723 and 0.0412, respectively.

Consider PCYT1A (UniProt P49585), for which the thermal stability z-score with lipoamide (setting [1]) was 0.0432; in the assay with lipoamide (arsenate co-treatment: none) it was 0.294; in the assay with potassium arsenate, 1.78.

For PCYT2 (UniProt Q99447), the thermal stability z-score is 0.0344 with lipoamide (setting [1]), -0.0669 with lipoamide (arsenate co-treatment: none) and -0.938 in the assay with potassium arsenate.

Turning to PDAP1 (UniProt Q13442), the figures for the thermal stability z-score in the assay with lipoamide (setting [1]), with lipoamide (arsenate co-treatment: none) and with potassium arsenate were 0.179, 0.298 and -0.0329, respectively.

For the target PDCD2 (UniProt Q16342), the thermal stability z-score with lipoamide (setting [1]) is -0.0711; in the assay with lipoamide (arsenate co-treatment: none), -0.181; with potassium arsenate it was -0.371.

For the target PDCD2L (UniProt Q9BRP1), the thermal stability z-score with lipoamide (setting [1]) was 0.275; in the assay with lipoamide (arsenate co-treatment: none), 0.139; in the assay with potassium arsenate it was -0.161.

In the case of PDCD4 (UniProt Q53EL6), the thermal stability z-score in the assay with lipoamide (setting [1]) is -0.493; in the assay with lipoamide (arsenate co-treatment: none), -0.0889; with potassium arsenate, -0.0393.

In the case of PDCD5 (UniProt O14737), the thermal stability z-score came to 1.01 with lipoamide (setting [1]), 0.727 with lipoamide (arsenate co-treatment: none) and 0.417 with potassium arsenate.

Take PDCD6 (UniProt O75340): the values for the thermal stability z-score in the assay with lipoamide (setting [1]), with lipoamide (arsenate co-treatment: none) and with potassium arsenate were 1.77, 0.818 and 0.623, respectively.

PDCD6IP (UniProt Q8WUM4): the thermal stability z-score with lipoamide (setting [1]) came to 1.3; with lipoamide (arsenate co-treatment: none), 1.06; in the assay with potassium arsenate, 2.4.

On to PDCD10 (UniProt Q9BUL8), for which the thermal stability z-score was 0.00718 in the assay with lipoamide (setting [1]), -0.0724 with lipoamide (arsenate co-treatment: none) and 0.151 with potassium arsenate.

Consider PDCD11 (UniProt Q14690), for which the values for the thermal stability z-score with lipoamide (setting [1]), with lipoamide (arsenate co-treatment: none) and with potassium arsenate were -0.0446, -0.334 and -0.125, respectively.

Take PDCL3 (UniProt Q9H2J4): the thermal stability z-score is -0.0813 with lipoamide (setting [1]), 0.0164 with lipoamide (arsenate co-treatment: none) and -0.174 in the assay with potassium arsenate.

In the case of PDCL (UniProt Q13371), the thermal stability z-score with lipoamide (setting [1]) was 1.05; in the assay with lipoamide (arsenate co-treatment: none) it was 0.207; with potassium arsenate it was -0.321.

For PDDC1 (UniProt Q8NB37), the thermal stability z-score with lipoamide (setting [1]) is 0.604; with lipoamide (arsenate co-treatment: none) it was -0.174; in the assay with potassium arsenate it was -2.18.

For the target PDE1A (UniProt P54750), the thermal stability z-score with lipoamide (setting [1]) was 0.864; in the assay with lipoamide (arsenate co-treatment: none), 1.23; with potassium arsenate it was 1.05.

For PDE2A (UniProt O00408), the thermal stability z-score in the assay with lipoamide (setting [1]) is -0.284; with lipoamide (arsenate co-treatment: none) it was 0.382; in the assay with potassium arsenate it was -0.355.

For the target PDE3A (UniProt Q14432), the results for the thermal stability z-score with lipoamide (setting [1]), in the assay with lipoamide (arsenate co-treatment: none) and with potassium arsenate were 0.363, 0.131 and -0.555, respectively.

As for PDE4D (UniProt Q08499), the thermal stability z-score with lipoamide (setting [1]) stood at 0.651; with lipoamide (arsenate co-treatment: none), 0.623; with potassium arsenate, 0.101.

Take PDE4DIP (UniProt Q5VU43): the values for the thermal stability z-score in the assay with lipoamide (setting [1]), with lipoamide (arsenate co-treatment: none) and in the assay with potassium arsenate were 0.0302, -0.0224 and -0.0411, respectively.

With PDE6D (UniProt O43924), the thermal stability z-score in the assay with lipoamide (setting [1]) was 0.899; in the assay with lipoamide (arsenate co-treatment: none), 0.515; with potassium arsenate, 0.912.

In the case of PDE8A (UniProt O60658), the thermal stability z-score in the assay with lipoamide (setting [1]) is 0.244; with lipoamide (arsenate co-treatment: none) it was 0.225; with potassium arsenate, 0.167.

In the case of PDE8B (UniProt O95263), the thermal stability z-score in the assay with lipoamide (setting [1]) was -0.563; with lipoamide (arsenate co-treatment: none), 0.202; in the assay with potassium arsenate, 0.228.

PDE12 (UniProt Q6L8Q7): the figures for the thermal stability z-score with lipoamide (setting [1]), with lipoamide (arsenate co-treatment: none) and in the assay with potassium arsenate were 0.274, 0.272 and -0.746, respectively.

On to PDF (UniProt Q9HBH1), for which the values for the thermal stability z-score with lipoamide (setting [1]), with lipoamide (arsenate co-treatment: none) and with potassium arsenate were -0.494, -0.231 and -0.495, respectively.

In the case of PDHA1 (UniProt P08559), the values for the thermal stability z-score with lipoamide (setting [1]), with lipoamide (arsenate co-treatment: none) and with potassium arsenate were 0.0392, 0.295 and -2.51, respectively.

As for PDHB (UniProt P11177), the thermal stability z-score with lipoamide (setting [1]) was 0.134; with lipoamide (arsenate co-treatment: none), 0.282; in the assay with potassium arsenate it was -2.38.

On to PDHX (UniProt O00330), for which the thermal stability z-score in the assay with lipoamide (setting [1]) was -0.515; in the assay with lipoamide (arsenate co-treatment: none) it was -0.468; with potassium arsenate it was -6.67.

Take PDIA3 (UniProt P30101): the figures for the thermal stability z-score in the assay with lipoamide (setting [1]), with lipoamide (arsenate co-treatment: none) and with potassium arsenate were -3.75, -2.98 and 0.907, respectively.

The values are drawn from the supplement of paper PMC12463676, “Small-molecule dissolution of stress granules by redox modulation benefits ALS models” (Nature Chemical Biology, 2025).
